Test results taken from patent US11000506B2, “Envenomation therapies and related pharmaceutical compositions, systems and kits” (OPHIREX, INC, priority 2014, dated 2021).
Entries after “also recorded” stand apart in the source; their conditions may differ. Like-named read-outs stand apart in the source and are kept apart here. Where a SMILES comes first, the peptide text is derived from it.

Tests used:
C. atrox venom MP = test: HTS for inhibitors of C. Atrox venom MP; format: biochemical; details: for percental (%) reduction of MP activity: compounds approximately 10 μM/well
Procedure: (§1) Background. Phospholipase A2 (PLA2) catalyzes the hydrolysis of phospholipids at the sn-2 position yielding a free fatty acid and a lysophospholipid. The release of arachidonic acid from membrane phospholipids by PLA is believed to be a key step in the control of eicosanoid production within the cell. The Bee Venom PLA2 Control was a 100 μg/ml solution of bee venom PLA2 is supplied as a positive control in the kit (Abcam kit catalog number ab133089). Substrate for MP was DQ Gelatin and assay run per EnzChek gelatinase assay manufacturers instructions. Venom MP activity was not optimized in initial experiments, but reaction rates were during experiments performed by an independently contracted laboratory. SP assay was performed using Nα-Benzoyl-L-arginine-7-amido-4-methylcoumarin hydrochloride. These kits were stored as specified if stored at −20° C. Unless otherwise specified, in the case of my experiments, only crude, unfractionated lyophilized venom purchased from Sigma or the Miami Serpentarium were used. Plate Setup: Manufacturers guidelines (paraphrased herein) were followed unless otherwise specified. Data Analysis: xcel per manufacturers recommendations. MP and SP assays were prepared and plated in the same manner as PLA2 assays except substrates and fluorophores were different. PBS was the buffer in the case of MP and SP assays and absorbance measured at 495 nm. Substrate for MP was DQ Gelatin and assay run per EnzChek gelatinase assay manufacturers instructions except that experiments were run, unconventionally at 37 C to estimate human body temperature and initial experiments for PLA2, MP activity and SP activity were not optimized for screening (e.g. extremely high doses of venom were used—10 mg/mL stock in all cases since the quality of the venom was unknown with final concentration of 0.444 mg/mL in the test wells). SP assay was performed using Na-Benzoyl-L-arginine-7-amido-4-methylcoumarin hydrochloride (Sigma). Specifics of contract laboratory technique vary from the present inventor's initial experiments in terms of venom and substrate optimization, plate size (384 instead of 96), volume and temperature and other factors including different operators such as those described immediately below, performed following the first pilot experiments and subsequently extended by a contract laboratory.
(§2) Small molecule screening and dose-response experiments took place in the Yale Center for Molecular Discovery. Instrumentation used when indicated included Tecan EVO (2), Tecan Aquarius, Matrix PlateMatePlus (2), Matrix PlateMate2×2 liquid transfer robots and Titertek and Thermo Multidrop liquid dispensers (7). PerkinElmer EnVision (3) and Tecan infinite M1000 (2) plate readers sensitively measure absorbance, fluorescence, fluorescence polarization and luminescence in 96- and 384-well plate formats. A GE InCell Analyzer 2200 imaging system acquires multicolor fluorescent and transmitted light images from plates. Piloting collections used in the first phases of screening were selected by the inventor or from libraries of known compounds and natural products available at the time of experiments on selected venoms including: NCC, GenPlus, Pharmakon, Bioactive lipids, Protease Inhibitors, Procured Drugs and FDA Approved Drugs libraries. The GenPlus (the NINDS Custom Collection) from MicroSource Discovery Systems contains 960 compounds. […]

M. fulvius venom [1] = test: protection of mice from M. fulvius venom (FIG. 6A-D); format: in vivo
Procedure: (§3) Mice received SC injections of M. fulvius venom at ^˜4 times the expected LD50 (typically estimated to be 1.3 mg/kg SC) (0.1 mg M. fulvius venom/animal for approximate dose of ^˜4 mg/kg). Prior to venom injection animals received either total dose 0.1 mg varespladib exipient (sham treatment) by SC route for calculated concentration of 4 mg/kg varespladib ^˜10-15 minutes before venom administration. Surviving animals were euthanized by CO2 inhalation at the end of experiments and observations periods ranging from ^˜12 hours to as long as 30 hours (survival being designated at 24 hours). […] In mice: Varespladib 4-8 mg/kg subcutaneously or orally with methylvarespladib, taken ad libitum. In rats, varespladib or excipient was administered intravenously at 30 seconds or 5 minutes following subcutaneous administration of venom at 4 or 8 mg/kg. Blood sampling and assay for sPLA2 activity was performed with samples taken from a surgically implanted jugular venous catheter at precise intervals (baseline, 30 minutes, 1 hour and 4 hours).
(§4) 6B Mice fed methylvarespladib or exipient ad libitum in biscuits had high-dose M. fulvius venom administered ^˜5 hours after introduction of the biscuits (N=2 each group). […] 6C Venom and varespladib (4 mg/kg) or venom and excipient were mixed just prior to administration and injected subcutaneously. At 5 hours (300 minutes, down-pointing arrow), surviving animals were retreated with ½ dose varespladib (2 mg/kg) or excipient. […] Mice either received venom and sham/excipient (N=7), methylvarespladib (N=3) or varespladib (N=7) ^˜30 seconds to 1.5 minute following venom administration. […] Confirmatory experiments and results of 6E-H were performed in rats by a contract laboratory to assess expand knowledge of varespladib's capacity to act in therapeutic mode and see if the effects of intravenous administration were similar to subcutaneous administration. 6E and 6F M. fulvius venom was administered subcutaneously (4 mg/kg or 8 mg/kg) and then excipient or varespladib 8 mg/kg was administered at 30 seconds or 5 minutes after envenomation.

[2] = tested on: snake venom metalloproteinase; test: time course of metalloproteinase activity with excess venom (FIG. 2A); format: biochemical; details: inhibitors 100 uM; venom 0.444 mg/mL
Procedure: Substrate for MP was DQ Gelatin and assay run per EnzChek gelatinase assay manufacturers instructions. Venom MP activity was not optimized in initial experiments, but reaction rates were during experiments performed by an independently contracted laboratory. SP assay was performed using Nα-Benzoyl-L-arginine-7-amido-4-methylcoumarin hydrochloride. […] Unless otherwise specified, in the case of my experiments, only crude, unfractionated lyophilized venom purchased from Sigma or the Miami Serpentarium were used. Plate Setup: Manufacturers guidelines (paraphrased herein) were followed unless otherwise specified. Data Analysis: xcel per manufacturers recommendations. MP and SP assays were prepared and plated in the same manner as PLA2 assays except substrates and fluorophores were different. PBS was the buffer in the case of MP and SP assays and absorbance measured at 495 nm. Substrate for MP was DQ Gelatin and assay run per EnzChek gelatinase assay manufacturers instructions except that experiments were run, unconventionally at 37 C to estimate human body temperature and initial experiments for PLA2, MP activity and SP activity were not optimized for screening (e.g. extremely high doses of venom were used—10 mg/mL stock in all cases since the quality of the venom was unknown with final concentration of 0.444 mg/mL in the test wells). SP assay was performed using Na-Benzoyl-L-arginine-7-amido-4-methylcoumarin hydrochloride (Sigma). Specifics of contract laboratory technique vary from the present inventor's initial experiments in terms of venom and substrate optimization, plate size (384 instead of 96), volume and temperature and other factors including different operators such as those described immediately below, performed following the first pilot experiments and subsequently extended by a contract laboratory.
(§10) Screening was carried out for inhibitors of venom sPLA2, MP and SPs. Stock solutions of venom at 10 mg/mL were used without typical dilution for assaying various inhibitors of sPLA2, MP and SPs. The final venom concentration in the assays was very high at 0.444 mg/mL.

Vipera berus venom = test: survival of mice given Vipera berus venom (FIG. 9); format: in vivo; details: for survival versus controls: N=7
Source text: (§5) V. berus is the most widely distributed viper in the world, ranging across Europe and Eurasia and as far north as the Arctic circle. It elaborates both hemo- and neurotoxins dangerous especially to children, pets and large animals such as horses.

snake venom PLA2 [3] = test: time course of PLA2 activity with excess venom (FIG. 1); format: biochemical; details: inhibitor 100 uM; venom 0.444 mg/mL final; 37 C
Source text: Plate Setup: Manufacturers guidelines (paraphrased herein) were followed unless otherwise specified. Data Analysis: xcel per manufacturers recommendations. […] Substrate for MP was DQ Gelatin and assay run per EnzChek gelatinase assay manufacturers instructions except that experiments were run, unconventionally at 37 C to estimate human body temperature and initial experiments for PLA2, MP activity and SP activity were not optimized for screening (e.g. extremely high doses of venom were used—10 mg/mL stock in all cases since the quality of the venom was unknown with final concentration of 0.444 mg/mL in the test wells).
as §10

snake venom PLA2 [4] = format: biochemical
Procedure: (§6) Background. Phospholipase A2 (PLA2) catalyzes the hydrolysis of phospholipids at the sn-2 position yielding a free fatty acid and a lysophospholipid. The release of arachidonic acid from membrane phospholipids by PLA is believed to be a key step in the control of eicosanoid production within the cell. The Bee Venom PLA2 Control was a 100 μg/ml solution of bee venom PLA2 is supplied as a positive control in the kit (Abcam kit catalog number ab133089). Substrate for MP was DQ Gelatin and assay run per EnzChek gelatinase assay manufacturers instructions. Venom MP activity was not optimized in initial experiments, but reaction rates were during experiments performed by an independently contracted laboratory. SP assay was performed using Nα-Benzoyl-L-arginine-7-amido-4-methylcoumarin hydrochloride. These kits were stored as specified if stored at −20° C. Unless otherwise specified, in the case of my experiments, only crude, unfractionated lyophilized venom purchased from Sigma or the Miami Serpentarium were used. Plate Setup: Manufacturers guidelines (paraphrased herein) were followed unless otherwise specified. Data Analysis: xcel per manufacturers recommendations. MP and SP assays were prepared and plated in the same manner as PLA2 assays except substrates and fluorophores were different. PBS was the buffer in the case of MP and SP assays and absorbance measured at 495 nm. […]
(§7) Small molecule screening and dose-response experiments took place in the Yale Center for Molecular Discovery. […] PerkinElmer EnVision (3) and Tecan infinite M1000 (2) plate readers sensitively measure absorbance, fluorescence, fluorescence polarization and luminescence in 96- and 384-well plate formats. […]

[5] = tested on: Crotalus otrox venom PLA2; test: venom sPLA2 inhibition IC50, varespladib and CroFab alone and together; format: biochemical, Crotalus atrox
Procedure: as §6, with “Plate Setup: Manufacturers guidelines (paraphrased herein) were followed unless otherwise specified. Data Analysis: xcel per manufacturers recommendations. MP and SP assays were prepared and plated in the same manner as PLA2 assays except substrates and fluorophores were different.” left out
as §7

bee venom PLA2 = bee venom PLA2 (Apis mellifera, UniProt P00630); format: biochemical
bee venom PLA2, sequence (P00630 34-167 limits assumed): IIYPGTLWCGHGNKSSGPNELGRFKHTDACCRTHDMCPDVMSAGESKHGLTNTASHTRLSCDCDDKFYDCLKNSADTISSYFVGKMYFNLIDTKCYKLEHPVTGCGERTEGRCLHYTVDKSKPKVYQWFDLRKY

C. scutulatus venom = test: survival of mice coinjected with C. scutulatus venom (FIG. 7A); format: in vivo; details: coinjected SC with C. scutulatus venom, single dose; N=4
D. russelli venom = test: survival of mice given Daboia russelli venom (FIG. 8); format: in vivo; details: varespladib 4 mg/kg SC 60 to 90 minutes before lethal dose of D. russelli venom; N=3
Daboia russelli venom MP = test: metalloproteinase activity over time, Daboia russelli venom (FIG. 2B); format: biochemical; details: 100 uM; venom 0.444 mg/mL
Procedure: Substrate for MP was DQ Gelatin and assay run per EnzChek gelatinase assay manufacturers instructions. Venom MP activity was not optimized in initial experiments, but reaction rates were during experiments performed by an independently contracted laboratory. […] These kits were stored as specified if stored at −20° C. Unless otherwise specified, in the case of my experiments, only crude, unfractionated lyophilized venom purchased from Sigma or the Miami Serpentarium were used. Plate Setup: Manufacturers guidelines (paraphrased herein) were followed unless otherwise specified. Data Analysis: xcel per manufacturers recommendations. MP and SP assays were prepared and plated in the same manner as PLA2 assays except substrates and fluorophores were different. PBS was the buffer in the case of MP and SP assays and absorbance measured at 495 nm. Substrate for MP was DQ Gelatin and assay run per EnzChek gelatinase assay manufacturers instructions except that experiments were run, unconventionally at 37 C to estimate human body temperature and initial experiments for PLA2, MP activity and SP activity were not optimized for screening (e.g. extremely high doses of venom were used—10 mg/mL stock in all cases since the quality of the venom was unknown with final concentration of 0.444 mg/mL in the test wells). […]

[6] = varespladib alone, no venom; N=2
Source text: as §5

M. fulvius venom [7] = test: treatment of rats after M. fulvius venom (FIG. 6E-H); format: in vivo; details: varespladib IV
Procedure: as §3, §4

[8] = tested on: Acanthophis antarcticus venom PLA2; test: venom sPLA2 inhibition IC50, varespladib and CroFab alone and together; format: biochemical
Procedure: as §1
(§8) Small molecule screening and dose-response experiments took place in the Yale Center for Molecular Discovery. Instrumentation used when indicated included Tecan EVO (2), Tecan Aquarius, Matrix PlateMatePlus (2), Matrix PlateMate2×2 liquid transfer robots and Titertek and Thermo Multidrop liquid dispensers (7). PerkinElmer EnVision (3) and Tecan infinite M1000 (2) plate readers sensitively measure absorbance, fluorescence, fluorescence polarization and luminescence in 96- and 384-well plate formats. A GE InCell Analyzer 2200 imaging system acquires multicolor fluorescent and transmitted light images from plates. Piloting collections used in the first phases of screening were selected by the inventor or from libraries of known compounds and natural products available at the time of experiments on selected venoms including: NCC, GenPlus, Pharmakon, Bioactive lipids, Protease Inhibitors, Procured Drugs and FDA Approved Drugs libraries. The GenPlus (the NINDS Custom Collection) from MicroSource Discovery Systems contains 960 compounds. This unique selection of known bioactive compounds permits the simultaneous evaluation of hundreds of marketed drugs and biochemical standards. The Pharmakon 1600 collection (MicroSource) includes known drugs used globally or studied in clinical trials.
(§9) Each assay was characterized in similar fashion, using methodology well-established in the Center. Assays are typically performed in 384-well microtiter plates.

[9] = tested on: Agkistrodon contortrix venom PLA2; test: as above; format: biochemical
Procedure: as §1, §8, §9

[10] = tested on: Crotalus scutulatus scutulatus venom PLA2; test: as above; format: biochemical
Procedure: as §1, §8, §9

[11] = tested on: Crotalus adamanteus venom PLA2; test: as above; format: biochemical
Procedure: as §1, §8, §9

[12] = tested on: Agkistrodon piscivorus venom PLA2; test: as above; format: biochemical
Procedure: as §1, §8, §9

[13] = tested on: snake venom serine proteases; test: serine protease activity with excess venom (FIG. 3); format: biochemical; details: 100 um; venom 0.444 mg/mL; compared to marimastat and batimastat
Procedure: Substrate for MP was DQ Gelatin and assay run per EnzChek gelatinase assay manufacturers instructions. Venom MP activity was not optimized in initial experiments, but reaction rates were during experiments performed by an independently contracted laboratory. SP assay was performed using Nα-Benzoyl-L-arginine-7-amido-4-methylcoumarin hydrochloride. […] Unless otherwise specified, in the case of my experiments, only crude, unfractionated lyophilized venom purchased from Sigma or the Miami Serpentarium were used. Plate Setup: Manufacturers guidelines (paraphrased herein) were followed unless otherwise specified. Data Analysis: xcel per manufacturers recommendations. MP and SP assays were prepared and plated in the same manner as PLA2 assays except substrates and fluorophores were different. PBS was the buffer in the case of MP and SP assays and absorbance measured at 495 nm. Substrate for MP was DQ Gelatin and assay run per EnzChek gelatinase assay manufacturers instructions except that experiments were run, unconventionally at 37 C to estimate human body temperature and initial experiments for PLA2, MP activity and SP activity were not optimized for screening (e.g. extremely high doses of venom were used—10 mg/mL stock in all cases since the quality of the venom was unknown with final concentration of 0.444 mg/mL in the test wells). […]

E. carinatus venom MP = test: HTS for inhibitors of E. carinatus venom MP; format: biochemical; details: compounds approximately 10 μM/well
Procedure: as §1, §2

[14] = biological target: snake venom metalloproteinase; test: IC50 for MP inhibition on various venoms (Table 8, FIG. 20); format: biochemical; details: general statement; values only in figures
[15] = tested on: Oxyuranus scutellatus venom serine protease; test: inhibition of venom serine proteases in vitro (FIG. 14); format: biochemical; details: elapid Oxyuranus scutellatus
Procedure: Substrate for MP was DQ Gelatin and assay run per EnzChek gelatinase assay manufacturers instructions. Venom MP activity was not optimized in initial experiments, but reaction rates were during experiments performed by an independently contracted laboratory. SP assay was performed using Nα-Benzoyl-L-arginine-7-amido-4-methylcoumarin hydrochloride. […] Unless otherwise specified, in the case of my experiments, only crude, unfractionated lyophilized venom purchased from Sigma or the Miami Serpentarium were used. Plate Setup: Manufacturers guidelines (paraphrased herein) were followed unless otherwise specified. […] MP and SP assays were prepared and plated in the same manner as PLA2 assays except substrates and fluorophores were different. PBS was the buffer in the case of MP and SP assays and absorbance measured at 495 nm. Substrate for MP was DQ Gelatin and assay run per EnzChek gelatinase assay manufacturers instructions except that experiments were run, unconventionally at 37 C to estimate human body temperature and initial experiments for PLA2, MP activity and SP activity were not optimized for screening (e.g. extremely high doses of venom were used—10 mg/mL stock in all cases since the quality of the venom was unknown with final concentration of 0.444 mg/mL in the test wells). SP assay was performed using Na-Benzoyl-L-arginine-7-amido-4-methylcoumarin hydrochloride (Sigma). […]

[16] = varespladib alone, read-out: Varespladib (IC50 nM)
[17] = varespladib and CroFab ® together, read-out: Varespladib IC50 (nM) With CroFab ®

CCCCC[C@H](CC(=O)NO)C(=O)N[C@H](C(=O)N1CCC[C@H]1CO)C(C)C [Actinonin]
percental (%) reduction of MP activity (C. atrox venom MP): 92%

CCc1c(C(=O)C(N)=O)c2c(OCC(=O)O)cccc2n1Cc1ccccc1 [Varespladib]
mice that died within 8 hours (M. fulvius venom [1]; varespladib 4 mg/kg SC minutes before M. fulvius venom 4 mg/kg SC): 0 of 5 | mice survived to the endpoint of 24 hours (M. fulvius venom [1]; {}): 5/5 | inhibition of metalloproteinase activity (time course) [2]: showed inhibition of MP activity in several snake venoms | animals that outlived controls (Vipera berus venom; Venom SC followed by Varespladib SC 8 mg/kg): 4 of 5 | survival versus controls (Vipera berus venom; lethal venom dose just prior to SC varespladib): outlived controls | animals surviving 24 hours (Vipera berus venom; varespladib IV 8 mg/kg lateral tail vein following venom): 5 of 5 | survival versus controls (Vipera berus venom; venom and varespladib injected simultaneously SC): outlived controls | inhibition of snake venom PLA2 activity (time course) (snake venom PLA2 [3]): inhibited PLA2 activity in all snake venoms tested | inhibition of snake venom PLA2 in vitro (snake venom PLA2 [4]): inhibited snake venom PLA2; also recorded: inhibited the measured sPLA2 activity of several medically important snake venoms | IC50 (snake venom PLA2 [4]; read-out: IC50s specific for snake venoms, lowest value): ≥ 0.05 nM | IC50 [5, 16]: 0.32 nM | IC50 [5, 17]: 0.07 nM | inhibition of bee venom PLA2 (bee venom PLA2): not inhibited; also recorded: only a modest effect | survival versus venom only controls (C. scutulatus venom): outlived controls | survival at 24 hours (D. russelli venom): all survived 24 hours | survival versus controls (D. russelli venom): outlived controls | inhibition of Daboia russelli venom MP over time (Daboia russelli venom MP): comparable inhibition | signs of toxicity [6]: no signs of toxicity | sPLA2 activity in blood samples (M. fulvius venom [7]; high dose coral snake venom SC, baseline, 30 minutes, 1 hour, 4 hours): dramatic suppression of sPLA2 activity | gross hemolysis in serum samples (M. fulvius venom [7]; venom SC): no or minimally visible hemolysis | pulmonary hemorrhage at necropsy (M. fulvius venom [7]; venom SC): either no or minimal pulmonary hemorrhage | IC50 [8, 16]: 0.74 nM | IC50 [8, 17]: 0.43 nM | IC50 [9, 16]: 0.22 nM | IC50 [9, 17]: 0.045 nM | IC50 [10, 16]: 1.51 nM | IC50 [10, 17]: 0.82 nM | IC50 [11, 16]: 0.25 nM | IC50 [11, 17]: 0.05 nM | IC50 [12, 16]: 0.28 nM | IC50 [12, 17]: 0.05 nM | inhibitory effects on snake venom serine proteases [13]: unexpected inhibitory effects

COC(=O)[C@H](Cc1ccccc1)NC(=O)[C@@H](N)CC(=O)O [Aspartame] (H-Asp-Phe-OMe)
% Effect on E. carinatus venom MP (E. carinatus venom MP): 6% | percental (%) reduction of MP activity (C. atrox venom MP): 6.31%

CCCCN1CCCCC1C(=O)Nc1c(C)cccc1C (centres unmarked) [bupvicaine]
% Effect on E. carinatus venom MP (E. carinatus venom MP): > 10%

NC[C@H](O)c1ccc(O)c(O)c1 [Norepinephrine]
% Effect on E. carinatus venom MP (E. carinatus venom MP): 28%

N=C(N)c1ccc2cc(OC(=O)c3ccc(N=C(N)N)cc3)ccc2c1 [Nafamostat]
IC50s on various venoms [14]: micromolar range | activity against venom serine protease in vitro [15]: surprising activity | % Effect on E. carinatus venom MP (E. carinatus venom MP): 28%

CCOC(=O)c1ccc(OC(=O)CCCCCNC(=N)N)cc1 [gabexate, ethyl-p[6-guanidinohexanoyloxy]-benzoate methansulfonate]
IC50s on various venoms [14]: micromolar range | % Effect on E. carinatus venom MP (E. carinatus venom MP): 23% | MP inhibition (in words) (C. atrox venom MP): MP inhibition was seen

CC(=O)N[C@@H](CS)C(=O)O [NAC, N-Acetyl Cysteine]
inhibition of metalloproteinase activity (time course) [2]: varying levels of MP inhibition
